Key:
[1] = target: β-glucosidase derived from Trichoderma viride (Trichoderma viride, UniProt Q6UJY0); experiment: β-Glucosidase inhibition test (pNP-β-Glc hydrolysis); type: biochemical; settings: T. viride enzyme
Method: (§1) β-Glucosidase inhibition test was performed as follows. 10 mM p-nitrophenyl-β-glucoside (100 μl, abbreviated as pNP-β-Glc hereinafter), 1 M sodium acetate buffer (pH 5.0, 50 μl), pure water, and 100 mM inhibitor (10 μl) were taken into a short test tube so that the mixture should have a total volume of […], and preincubated at 40° C. for 5 minutes. After the incubation, the obtained mixture was added with 50 μl of enzyme solution diluted to a suitable concentration, and allowed to react at 40° C. After 10 minutes, the enzyme was inactivated by adding 500 μl of 1 M sodium carbonate to the obtained reaction mixture, and the absorbance at 405 nm was measured and used for calculation of the amount of free p-nitrophenol. As the inhibitor, cyclopropylmethyl-β-glucoside (CPAM-β-Glc), cyclopentyl-β-glucoside (CPE-β-Glc), and cyclopentylmethyl-β-glucoside (CPEM-β-Glc) all prepared by the methods of Examples 1 and 2were used. As the β-glucosidase, chromatographically purified preparations derived from Aspergillus niger, Trichoderma viride, and Almond (all from SIGMA) were used.

[2] = target: β-glucosidase derived from Aspergillus niger (Aspergillus niger, UniProt A2RAL4); experiment: as above; type: biochemical; settings: for Activity ratio (pNP-β-glucosidase activity): cycloalkyl glucoside 1 mM (table title), no inhibitor = 1.00, pH 5.0, 40° C., 10 minutes
Method: as §1

[3] = system: β-glucosidase derived from Almond; experiment: as above; type: biochemical; settings: for Activity ratio (pNP-β-glucosidase activity): Almond enzyme, cycloalkyl glucoside 1 mM (table title), no inhibitor = 1.00, pH 5.0, 40° C., 10 minutes
Method: as §1

lily cut flowers = experiment: Aromatic substance formation inhibition effect in cut flowers (organoleptic test); type: in vivo; settings: 0.13% (w/v, 5 mM) aqueous solution
Method: (§2) A 0.13% (w/v, 5 mM) aqueous solution of the CPEM-β-Glc obtained in Example 2 was prepared. The obtained aqueous solution (300 ml) was introduced into an Erlenmeyer flask, and lily, chrysanthemum, and gypsophila were put into it one for each. On the other hand, as control, the flowers were similarly put into water without the CPEM-β-Glc. After 1, 2 and 4 days, organoleptic test was performed by ten expert panelists as for the aroma emitted from these cut flowers.

gypsophila cut flowers = experiment: as above; type: in vivo; settings: 0.13% (w/v, 5 mM) aqueous solution
Method: as §2

[4] = system: chrysanthemum cut flowers; experiment: as above; type: in vivo; settings: 0.13% (w/v, 5 mM) aqueous solution
Method: as §2

[5] = system: rose petal crude enzyme solution (pNP-β-Glc activity); experiment: Inhibition test for rose crude enzyme (pNP-β-Glc activity); type: biochemical, Rosa gybrida CV. Wendy
Method: as §1
Only petals (about 70 g) were collected from about ten marketed roses (variety; Rosa gybrida CV. Wendy), added with acetone (500 ml) cooled to −20° C., and pulverized by a homogenizer while cooled with dry ice. The obtained pulverized mixture was filtered through a Buchner funnel put with a No. 2 filter paper sheet, and sufficiently washed with acetone at −20° C. The obtained filtrate was dried in a desiccator under reduced pressure (room temperature, 3 hours) to obtain 6 g of crude enzyme powder. This powder was added to 100 mM sodium phosphate buffer (pH 7.0, 120 ml) and stirred at 4° C. for 3 hours, and the insoluble matter was removed by centrifugation. The filtrate was subjected to ultrafiltration utilizing an ultrafiltration membrane PM-10 (Amicon) to finally afford 15 ml of crude enzyme solution.
In the same manner as in Example 3, the inhibition activity of the CPEM-β-Glc obtained in Example 2 for the pNP-β-Glc activity of the above crude enzyme solution was measured. […]

[6] = cycloalkyl glucoside 1 mM (table title), no inhibitor = 1.00, pH 5.0, 40° C., 10 minutes

SMILES	Activity ratio (pNP-β-glucosidase activity) [1, 6]	Activity ratio (pNP-β-glucosidase activity) ([2]; A. niger enzyme)	Activity ratio (pNP-β-glucosidase activity) [3]	Freshness of the cut flowers (lily cut flowers; added versus not added)	Aroma emitted from cut flowers (organoleptic test, ten expert panelists) (lily cut flowers; after one day, versus water)	Freshness of the cut flowers (gypsophila cut flowers; added versus not added)	Aroma emitted from cut flowers (organoleptic test, ten expert panelists) (gypsophila cut flowers; after one day, versus water)	Freshness of the cut flowers ([4]; added versus not added)	Aroma emitted from cut flowers (organoleptic test, ten expert panelists) ([4]; after one day, versus water)	Inhibition activity for pNP-β-Glc activity of rose crude enzyme ([5]; at 3 mM)	Inhibition activity for pNP-β-Glc activity of rose crude enzyme ([5]; at 4 mM)	Inhibition activity for pNP-β-Glc activity of rose crude enzyme ([5]; at 5 mM)	activity at 1000 µM ([1]; 10 min, cycloalkyl glucoside 1 mM (table title), no inhibitor = 1.00, pH 5.0, 40° C., 10 minutes, read-out: Activity ratio (pNP-β-glucosidase activity)) [%]	Inhibition of β-glucosidase (in words) ([1]; inhibitor concentration of 1.25 mM)	activity at 1000 µM ([2]; 10 min, pH 5, read-out: Activity ratio (pNP-β-glucosidase activity)) [%]	Inhibition of β-glucosidase (in words) ([2]; A. niger enzyme, inhibitor concentration of 1.25 mM)	Inhibition of β-glucosidase (in words) ([3]; almond enzyme, inhibitor concentration of 1.25 mM)	Difference in 50% inhibition concentration, almond versus A. niger and T. viride β-glucosidases ([3]; ratio of 50% inhibition concentrations)	IC50 ([3]; β-glucosidase derived from almond, concentration varied from 0 to 5 mM, read-out: 50% inhibition concentration) [µM]
OC[C@H]1O[C@@H](OCC2CC2)[C@H](O)[C@@H](O)[C@@H]1O [CPAM-β-Glc, cyclopropylmethyl-β-glucoside]	1.01	0.94	0.86																
OC[C@H]1O[C@@H](OC2CCCC2)[C@H](O)[C@@H](O)[C@@H]1O [CPE-β-Glc, cyclopentyl-β-glucoside]	1.06	0.92	0.90																
OCC1OC(OCC2CCCC2)C(O)C(O)C1O (stereo not drawn) [CPEM-β-Glc, cyclopentylmethyl-β-glucoside]			0.27	No difference	distinctly reduced	No difference	distinctly reduced	No difference	distinctly reduced	about 50%	about 70%	about 90%	105	no inhibition	99	relatively weak inhibition	strongly inhibited	about 70 times	170
